The text below walks through data of ChEMBL document CHEMBL1201862, “PubChem BioAssay data set” (2004).

Usually EC50 stands for the concentration needed to bring the measured effect to its halfway point. As usually defined, the IC50 is the concentration that inhibits the measured activity by half.

Test [1] addresses Sphingosine 1-phosphate receptor 1 (Homo sapiens, UniProt P21453). The test is described as follows: Fluorescence-based counterscreen assay for S1P4 agonists: Cell-based dose response high throughput screening assay to identify agonists of the Sphingosine 1-Phosphate Receptor 1 (S1P1). [Related pubchem assays (depositor defined):AID1509, AID1523, AID1801, AID463107, AID463118, AID463119, AID463122, AID463123, AID463129, AID463225, AID504400, AID504460]. The format is functional. For orientation: A counterscreen serves to expose hits that act by an unwanted route or on another target.

The target in test [2] is T1, Sphingosine 1-phosphate receptor 4 (Homo sapiens, UniProt O95977).
T1 sequence (O95977 whole entry): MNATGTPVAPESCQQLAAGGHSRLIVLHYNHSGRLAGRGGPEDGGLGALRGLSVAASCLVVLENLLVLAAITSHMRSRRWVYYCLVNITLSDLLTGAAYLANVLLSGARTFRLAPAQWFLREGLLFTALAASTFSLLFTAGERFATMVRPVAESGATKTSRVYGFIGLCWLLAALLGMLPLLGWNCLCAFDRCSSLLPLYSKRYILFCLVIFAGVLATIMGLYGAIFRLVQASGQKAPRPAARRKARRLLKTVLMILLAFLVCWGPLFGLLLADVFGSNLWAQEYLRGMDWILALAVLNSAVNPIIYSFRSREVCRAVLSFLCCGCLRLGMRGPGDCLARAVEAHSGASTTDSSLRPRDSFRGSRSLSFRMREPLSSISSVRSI
The test is described as follows: Fluorescence dose response cell-based high throughput screening assay for agonists of the Sphingosine 1-Phosphate Receptor 4 (S1P4). [Related pubchem assays: 1509 (Primary screen.), 1523 (Confirmation screen in triplicates.)]. It counts as functional.

Test [3] deals with T2, Dual specificity protein phosphatase 3 (Homo sapiens, UniProt P51452). The test is described as follows: VHR1 phosphatase inhibitors, primary screen, biochemical, absorbance, uHTS (AID 1654).
T2 sequence (P51452 whole entry): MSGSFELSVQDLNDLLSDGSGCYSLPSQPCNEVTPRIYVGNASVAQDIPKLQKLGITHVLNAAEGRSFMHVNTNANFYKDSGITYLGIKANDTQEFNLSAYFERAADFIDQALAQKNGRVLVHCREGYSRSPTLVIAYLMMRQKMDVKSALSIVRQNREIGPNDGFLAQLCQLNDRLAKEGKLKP
Test [4] addresses Glyceraldehyde-3-phosphate dehydrogenase (Homo sapiens, UniProt P04406).
Test [5] addresses T3, Voltage-gated N-type calcium channel alpha-1B subunit/Amyloid beta A4 precursor protein-binding family A member 1 (Homo sapiens, UniProt Q00975+Q02410). It counts as protein assay.
Another test deals with NS3 (Hepatitis C virus, UniProt A3EZJ3). The test is described as follows: PubChem AID 2173. Set-up: species or system Hepacivirus hominis.
Test [6] deals with T3, Voltage-gated N-type calcium channel alpha-1B subunit/Amyloid beta A4 precursor protein-binding family A member 1. The format is protein assay. This is another data set of the same source.
The target in test [7] is T2, Dual specificity protein phosphatase 3. The test is described as follows: VHR1 phosphatase inhibitors, biochemical (AID 1878).
Test [8] deals with Dual specificity protein phosphatase 6 (Rattus norvegicus, UniProt Q64346). The test is described as follows: MKP-3 phosphatase inhibitors, primary screen, biochemical, rat enzyme, in vitro (AID 425).
Sequence of Dual specificity protein phosphatase 6 (Q64346 whole entry): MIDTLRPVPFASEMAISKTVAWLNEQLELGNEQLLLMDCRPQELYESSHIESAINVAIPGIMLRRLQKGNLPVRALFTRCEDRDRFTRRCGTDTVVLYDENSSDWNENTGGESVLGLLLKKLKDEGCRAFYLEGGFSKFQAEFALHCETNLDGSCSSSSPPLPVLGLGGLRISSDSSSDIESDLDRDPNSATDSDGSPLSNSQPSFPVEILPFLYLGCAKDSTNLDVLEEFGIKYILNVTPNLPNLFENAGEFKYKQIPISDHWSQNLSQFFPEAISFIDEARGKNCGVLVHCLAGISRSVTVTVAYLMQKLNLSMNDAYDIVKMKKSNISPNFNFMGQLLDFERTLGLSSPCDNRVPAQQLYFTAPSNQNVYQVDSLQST
The target in test [9] is Tyrosine-protein phosphatase non-receptor type 12 (Homo sapiens, UniProt Q05209). The test is described as follows: SAR Selectivity Analysis of small molecule inhibitors of PEST using pCAP in a fluorescence assay. [Related pubchem assays (depositor defined):AID1779, AID1784, AID2135]. The format is functional.
Test [10] has as its target T4, Tyrosine-protein phosphatase non-receptor type 22 (Homo sapiens, UniProt Q9Y2R2).
T4 sequence (Q9Y2R2 whole entry): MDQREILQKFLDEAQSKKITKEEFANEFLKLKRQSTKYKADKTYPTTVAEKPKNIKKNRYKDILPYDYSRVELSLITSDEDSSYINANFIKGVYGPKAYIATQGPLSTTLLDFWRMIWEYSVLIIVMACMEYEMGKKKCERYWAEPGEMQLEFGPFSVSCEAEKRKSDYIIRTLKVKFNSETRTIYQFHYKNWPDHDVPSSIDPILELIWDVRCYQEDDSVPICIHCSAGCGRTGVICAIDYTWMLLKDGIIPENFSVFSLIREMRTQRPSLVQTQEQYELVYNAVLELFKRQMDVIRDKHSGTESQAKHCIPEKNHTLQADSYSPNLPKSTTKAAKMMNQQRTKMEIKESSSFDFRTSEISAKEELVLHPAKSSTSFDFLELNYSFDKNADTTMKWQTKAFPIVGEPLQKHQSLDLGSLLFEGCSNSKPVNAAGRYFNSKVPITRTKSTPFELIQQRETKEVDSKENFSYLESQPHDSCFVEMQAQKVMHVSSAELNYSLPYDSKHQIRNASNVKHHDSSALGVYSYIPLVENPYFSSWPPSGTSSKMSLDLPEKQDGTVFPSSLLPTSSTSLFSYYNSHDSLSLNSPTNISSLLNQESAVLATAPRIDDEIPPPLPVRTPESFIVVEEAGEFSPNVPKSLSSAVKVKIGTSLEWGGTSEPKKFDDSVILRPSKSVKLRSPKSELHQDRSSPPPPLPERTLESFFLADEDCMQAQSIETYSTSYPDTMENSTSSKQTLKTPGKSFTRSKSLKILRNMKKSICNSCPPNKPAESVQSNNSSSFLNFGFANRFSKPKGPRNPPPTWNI
The test is described as follows: SAR LYP1 Fluorescent Assay using OMFP substrate for In Vitro dose response studies - Set 3. [Related pubchem assays (depositor defined):AID1779, AID1784, AID2140, AID2686]. It counts as functional.

The target of test [11] is T5, Tyrosine-protein phosphatase non-receptor type 7 (Homo sapiens, UniProt P35236).
T5 sequence (P35236 whole entry): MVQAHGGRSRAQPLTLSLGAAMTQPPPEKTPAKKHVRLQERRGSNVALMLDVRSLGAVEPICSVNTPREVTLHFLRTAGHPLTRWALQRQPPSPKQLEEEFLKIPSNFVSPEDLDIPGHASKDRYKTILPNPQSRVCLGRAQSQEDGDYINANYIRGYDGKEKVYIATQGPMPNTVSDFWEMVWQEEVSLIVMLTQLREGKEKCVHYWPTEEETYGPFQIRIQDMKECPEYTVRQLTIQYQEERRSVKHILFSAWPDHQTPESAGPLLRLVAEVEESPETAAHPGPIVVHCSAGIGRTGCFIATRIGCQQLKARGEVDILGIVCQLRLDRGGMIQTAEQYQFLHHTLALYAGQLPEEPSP
The test is described as follows: HePTP (PTPN7) phosphatase inhibitor potency, SAR follow-up, biochemical, set 2 (AID 449736). The format is functional.

In test [12] the target is T4, Tyrosine-protein phosphatase non-receptor type 22. The test is described as follows: LYP (PTPN22) phosphatase inhibitor potency, SAR follow-up, biochemical, pCAP fluorogenic substrate, fluorescence, set 3 (AID 449727). The format is functional.
For test [13], the target named is T6, Kappa-type opioid receptor (Homo sapiens, UniProt P41145). The test is described as follows: SAR analysis of small molecule agonists of the kappa opioid receptor via a luminescent beta-arrestin assay. [Related pubchem assays (depositor defined):AID1777, AID1786, AID1966, AID2133, AID2136, AID2348, AID2352, AID2357, AID2359, AID2370, AID2420, AID2478, AID2491, AID2492, AID2493, AID2497, AID2498, AID2500, AID449737, AID488822, AID488842]. The format is functional.
T6 sequence (P41145 whole entry): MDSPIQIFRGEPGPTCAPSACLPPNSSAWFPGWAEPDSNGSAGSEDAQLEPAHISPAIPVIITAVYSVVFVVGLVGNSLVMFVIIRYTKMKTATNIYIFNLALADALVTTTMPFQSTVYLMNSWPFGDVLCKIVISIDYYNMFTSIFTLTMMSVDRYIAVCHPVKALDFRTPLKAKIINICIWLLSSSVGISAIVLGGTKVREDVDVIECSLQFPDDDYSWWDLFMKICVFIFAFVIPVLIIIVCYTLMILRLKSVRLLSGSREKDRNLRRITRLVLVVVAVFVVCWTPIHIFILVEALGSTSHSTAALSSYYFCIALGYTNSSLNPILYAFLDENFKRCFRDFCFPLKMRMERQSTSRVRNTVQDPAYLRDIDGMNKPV

Test [14] deals with T7, Mu-type opioid receptor (Homo sapiens, UniProt P35372). The test is described as follows: MOR agonists by imaging, SAR follow-up, image-based (AID 2352). The format is functional.
T7 sequence (P35372 whole entry): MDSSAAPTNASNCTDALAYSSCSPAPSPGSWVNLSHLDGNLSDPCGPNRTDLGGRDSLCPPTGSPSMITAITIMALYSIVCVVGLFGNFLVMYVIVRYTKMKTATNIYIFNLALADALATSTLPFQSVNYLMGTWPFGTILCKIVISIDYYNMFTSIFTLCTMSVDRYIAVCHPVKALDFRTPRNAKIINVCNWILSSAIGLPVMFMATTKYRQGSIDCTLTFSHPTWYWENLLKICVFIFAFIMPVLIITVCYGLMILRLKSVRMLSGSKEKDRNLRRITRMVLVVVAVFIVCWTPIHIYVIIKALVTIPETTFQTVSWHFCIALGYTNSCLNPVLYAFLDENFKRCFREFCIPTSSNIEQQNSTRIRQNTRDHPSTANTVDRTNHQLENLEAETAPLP
Test [15] deals with T8, Delta-type opioid receptor (Homo sapiens, UniProt P41143). The test is described as follows: DOR agonists, SAR follow-up, image-based (AID 2370). It counts as functional.
T8 sequence (P41143 whole entry): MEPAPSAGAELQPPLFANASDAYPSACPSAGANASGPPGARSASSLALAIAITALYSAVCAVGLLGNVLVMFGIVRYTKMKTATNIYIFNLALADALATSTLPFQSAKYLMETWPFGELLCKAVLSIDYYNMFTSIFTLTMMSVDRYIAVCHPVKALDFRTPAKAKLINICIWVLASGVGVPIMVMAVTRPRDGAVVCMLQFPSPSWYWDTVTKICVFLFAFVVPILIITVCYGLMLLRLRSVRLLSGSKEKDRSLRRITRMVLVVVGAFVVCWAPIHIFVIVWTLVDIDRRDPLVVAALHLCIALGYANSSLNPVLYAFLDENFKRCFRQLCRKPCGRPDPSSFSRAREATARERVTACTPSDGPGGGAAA
The target in test [16] is T6, Kappa-type opioid receptor. The test is described as follows: KOR antagonists by imaging, SAR follow-up, image-based (AID 2348). It counts as functional.
For test [17], the target named is T7, Mu-type opioid receptor. The test is described as follows: MOR antagonists, SAR follow-up, image-based (AID 2420).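 Also: compounds added before stimulation of receptor with agonist DAMGO.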 It counts as functional.
Test [18] has as its target T6, Kappa-type opioid receptor. The test is described as follows: KOR agonist analogs, imaging readout, SAR follow-up, image-based (AID 2359). The format is functional.
In test [19] the target is T8, Delta-type opioid receptor. The test is described as follows: DOR antagonists, SAR follow-up, image-based (AID 2357). It counts as functional.

The source made the active and inactive calls.

T3 sequence (Q00975 whole entry): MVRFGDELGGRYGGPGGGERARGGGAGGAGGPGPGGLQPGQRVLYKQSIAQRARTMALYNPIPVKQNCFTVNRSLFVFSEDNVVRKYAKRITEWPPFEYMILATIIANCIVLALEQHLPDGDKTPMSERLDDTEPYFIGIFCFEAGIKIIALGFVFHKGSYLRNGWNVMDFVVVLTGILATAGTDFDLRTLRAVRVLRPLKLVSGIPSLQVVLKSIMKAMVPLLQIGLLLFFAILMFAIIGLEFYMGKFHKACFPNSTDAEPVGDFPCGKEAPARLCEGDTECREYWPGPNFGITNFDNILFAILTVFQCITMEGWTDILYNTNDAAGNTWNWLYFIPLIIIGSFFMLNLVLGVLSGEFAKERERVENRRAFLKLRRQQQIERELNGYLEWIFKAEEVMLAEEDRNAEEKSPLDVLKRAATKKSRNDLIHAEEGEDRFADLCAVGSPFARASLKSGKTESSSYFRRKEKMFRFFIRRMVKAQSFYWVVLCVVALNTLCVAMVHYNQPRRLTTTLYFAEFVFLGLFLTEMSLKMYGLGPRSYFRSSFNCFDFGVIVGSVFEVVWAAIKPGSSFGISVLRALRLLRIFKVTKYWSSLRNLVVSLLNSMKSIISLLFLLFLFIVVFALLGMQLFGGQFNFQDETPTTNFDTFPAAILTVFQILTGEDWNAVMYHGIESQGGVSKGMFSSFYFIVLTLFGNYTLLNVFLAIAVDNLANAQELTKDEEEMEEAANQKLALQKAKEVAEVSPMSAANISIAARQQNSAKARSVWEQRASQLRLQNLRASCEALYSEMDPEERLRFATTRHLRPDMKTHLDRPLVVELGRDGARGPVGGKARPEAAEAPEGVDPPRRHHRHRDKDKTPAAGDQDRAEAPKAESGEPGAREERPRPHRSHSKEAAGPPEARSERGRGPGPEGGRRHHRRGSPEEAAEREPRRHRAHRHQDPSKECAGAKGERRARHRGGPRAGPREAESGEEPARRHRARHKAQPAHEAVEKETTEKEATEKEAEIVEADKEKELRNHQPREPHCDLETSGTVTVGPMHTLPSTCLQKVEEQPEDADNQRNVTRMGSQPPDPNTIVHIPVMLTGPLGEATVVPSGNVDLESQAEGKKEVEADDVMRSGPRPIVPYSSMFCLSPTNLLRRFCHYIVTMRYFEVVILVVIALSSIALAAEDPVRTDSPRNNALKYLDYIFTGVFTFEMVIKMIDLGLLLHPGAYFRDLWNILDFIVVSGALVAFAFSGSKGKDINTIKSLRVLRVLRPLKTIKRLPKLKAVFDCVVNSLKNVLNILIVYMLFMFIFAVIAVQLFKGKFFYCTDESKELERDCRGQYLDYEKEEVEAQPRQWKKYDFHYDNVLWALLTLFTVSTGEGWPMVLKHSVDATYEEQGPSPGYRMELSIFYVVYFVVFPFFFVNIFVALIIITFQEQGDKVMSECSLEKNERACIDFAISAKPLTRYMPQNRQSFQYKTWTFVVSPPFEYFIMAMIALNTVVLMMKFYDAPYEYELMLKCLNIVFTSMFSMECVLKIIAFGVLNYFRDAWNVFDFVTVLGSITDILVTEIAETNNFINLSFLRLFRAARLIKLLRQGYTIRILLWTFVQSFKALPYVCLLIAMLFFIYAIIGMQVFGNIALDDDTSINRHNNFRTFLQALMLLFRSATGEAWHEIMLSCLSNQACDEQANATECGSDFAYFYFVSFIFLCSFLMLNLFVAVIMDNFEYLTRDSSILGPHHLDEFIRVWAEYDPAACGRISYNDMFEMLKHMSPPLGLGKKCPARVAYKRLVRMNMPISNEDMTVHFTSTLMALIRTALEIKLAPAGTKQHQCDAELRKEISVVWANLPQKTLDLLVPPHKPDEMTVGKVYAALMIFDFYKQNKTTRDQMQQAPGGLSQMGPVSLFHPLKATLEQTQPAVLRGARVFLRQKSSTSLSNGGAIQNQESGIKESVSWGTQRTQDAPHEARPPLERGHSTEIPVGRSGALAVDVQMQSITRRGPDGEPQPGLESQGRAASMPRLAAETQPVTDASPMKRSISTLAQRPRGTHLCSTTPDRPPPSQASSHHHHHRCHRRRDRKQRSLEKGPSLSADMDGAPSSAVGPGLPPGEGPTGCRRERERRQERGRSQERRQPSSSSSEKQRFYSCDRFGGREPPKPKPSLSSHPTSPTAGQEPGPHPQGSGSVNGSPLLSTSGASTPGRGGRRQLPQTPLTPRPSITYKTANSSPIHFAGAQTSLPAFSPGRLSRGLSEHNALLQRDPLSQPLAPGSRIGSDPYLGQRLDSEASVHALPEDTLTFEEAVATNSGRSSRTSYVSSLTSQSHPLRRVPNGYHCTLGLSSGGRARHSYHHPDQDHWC
T3 sequence (Q02410 whole entry): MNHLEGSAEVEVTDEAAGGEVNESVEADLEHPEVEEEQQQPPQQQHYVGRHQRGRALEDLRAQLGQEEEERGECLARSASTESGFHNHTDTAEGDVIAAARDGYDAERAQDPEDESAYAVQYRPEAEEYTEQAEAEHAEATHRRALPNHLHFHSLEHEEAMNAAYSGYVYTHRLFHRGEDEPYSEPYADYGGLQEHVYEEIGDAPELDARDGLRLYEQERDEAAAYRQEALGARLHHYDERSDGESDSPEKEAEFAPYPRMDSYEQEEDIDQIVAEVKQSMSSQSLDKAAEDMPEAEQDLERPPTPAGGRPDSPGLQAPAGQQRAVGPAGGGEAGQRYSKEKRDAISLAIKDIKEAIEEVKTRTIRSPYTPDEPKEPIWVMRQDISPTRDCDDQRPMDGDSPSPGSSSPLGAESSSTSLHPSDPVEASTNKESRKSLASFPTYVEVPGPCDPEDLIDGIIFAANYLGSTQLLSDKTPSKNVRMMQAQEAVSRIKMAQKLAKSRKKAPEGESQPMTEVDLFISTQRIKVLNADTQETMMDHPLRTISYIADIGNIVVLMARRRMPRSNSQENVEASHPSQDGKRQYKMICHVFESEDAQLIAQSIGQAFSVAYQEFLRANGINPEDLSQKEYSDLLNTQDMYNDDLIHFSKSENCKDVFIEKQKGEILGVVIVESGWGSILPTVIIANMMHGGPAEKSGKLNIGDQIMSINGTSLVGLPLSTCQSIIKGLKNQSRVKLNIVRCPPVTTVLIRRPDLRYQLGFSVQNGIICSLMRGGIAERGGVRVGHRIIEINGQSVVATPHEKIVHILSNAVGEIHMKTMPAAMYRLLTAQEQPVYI

Take `Clc1ccc(C2=NN(c3ccccc3)C(c3ccco3)C2)cc1` (stereo not given): the EC50 in [1] is > 5.53 µM (inactive); in test [2], > 16.6 µM (not active).

For `O=C(O)CCN1C(=O)/C(=C2\C(=O)N(Cc3ccccc3Cl)c3ccccc32)SC1=S`, the IC50 in [3] is 3.2 µM (active); in [4] it was > 100 µM (not active); in test [5], 9.81 µM (active); on NS3, 3.06 µM (active); in test [6], > 50 µM (inactive); in test [7] it was < 1.23 µM (inactive). Further, the IC50 was 30.9 µM (active) in test [8]; 2.03 µM (active) in [9]; 2.88 µM (active) in test [10]; 0.549 µM (active) in test [11]; 1.91 µM (active) in [12].

Consider `O=C(c1cnccn1)N(Cc1cccs1)C1(C(=O)NC2CCCCC2)CCCCC1`, for which the EC50 was 0.444 µM (active) in test [13], > 32 µM (inactive) at Mu-type opioid receptor [14], > 32 µM (inactive) in test [15] and 0.141 µM (active) in test [18]. Further, the IC50 (in test [16]; at Mu-type opioid receptor [17]; in test [19]) was > 32 µM (inactive) each time.
